Experimental data: patent publication US8343961B2, “Substituted heterocyclic compounds” (ArQule, Inc., priority 2009, dated 2013)

Key:
Assay type in all cases: cell-based
PC-3 = test: MTS Cellular Assay, PC-3; details: Homo sapiens, PC-3, 72 hours
Procedure: (§1) Cells were maintained at 37° C., 5% CO2 in DMEM media supplemented with 1% fetal bovine serum, penicillin/streptomycin and fungizone (Invitrogen). Cells were seeded into 96-well tissue culture plates at 3000 per well and cultured at 37° C. for 18 hours. Test compounds were dissolved and diluted to 300× in DMSO then further diluted 1:40 in DMEM before addition to cells (1:7.5 dilution). Cells were incubated with test compounds for 72 hours followed by incubation with tetrazolium compound (3-(4,5-dimethylthiazol-2-yl)-5-(3-carboxymethoxyphenyl)-2-(4-sulfophenyl)-2H-tetrazolium, inner salt; MTS) and the electron coupling reagent, phenazine methosulfate (PMS) for 4 hours. […] The ability of compounds to inhibit cell growth in this assay is correlated with the reduction of dehydrogenase enzyme activity found in metabolically active cells. The measurement of the absorbance of the formazan was assessed using an ENVISION™ (Perkin Elmer) microplate reader at 492 nm. The calculated IC50 value is the concentration of the test compound that causes a 50% decrease in the absorbance.

MDA-MB-231 = test: MTS Cellular Assay, MDA-MB-231; details: Homo sapiens, MDA-MB-231, 72 hours
Procedure: as §1

PACA-2 = test: MTS Cellular Assay, PACA-2; details: PACA-2, 72 hours
Procedure: as §1

KATO III = test: MTS Cellular Assay, KATO III; details: Homo sapiens, 72 hours
Procedure: as §1

DLD-1 = test: MTS Cellular Assay, DLD-1; details: Homo sapiens, DLD-1, 72 hours
Procedure: as §1

NCI-H1299 = test: MTS Cellular Assay, NCI-H1299; details: Homo sapiens, NCI-H1299, 72 hours
Procedure: as §1

| SMILES | inhibition at 10 µM (PC-3) [%] | inhibition at 10 µM (MDA-MB-231) [%] | inhibition at 10 µM (PACA-2) [%] | inhibition at 10 µM (KATO III) [%] | inhibition at 10 µM (DLD-1) [%] | inhibition at 10 µM (NCI-H1299) [%] |
| --- | --- | --- | --- | --- | --- | --- |
| Nc1nc(N2CCN(CCCc3cccc(F)c3)c3ccccc3C2)c2nc[nH]c2n1 [Compound 39, 6-{1-[3-(3-fluorophenyl)propyl]-1,2,3,5-tetrahydro-4H-1,4-benzodiazepin-4-yl}-9H-purin-2-amine] | > 79 | > 79 | > 79 | > 79 | > 79 | > 79 |
| Nc1nc(N2CCN(CCCc3cccc(Cl)c3)c3ccccc3C2)c2cn[nH]c2n1 [Compound 8, 4-{1-[3-(3-chlorophenyl)propyl]-1,2,3,5-tetrahydro-4H-1,4-benzodiazepin-4-yl}-1H-pyrazolo[3,4-d]pyrimidin-6-amine] | < 50 | < 50 | < 50 | < 50 | > 79 | 50 to 79 |
| Nc1nc(N2CCN(Cc3ccc(Cl)cc3Cl)c3ccccc3C2)c2cn[nH]c2n1 [Compound 32, 4-[1-(2,4-dichlorobenzyl)-1,2,3,5-tetrahydro-4H-1,4-benzodiazepin-4-yl]-1H-pyrazolo[3,4-d]pyrimidin-6-amine] | < 50 | < 50 | < 50 | 50 to 79 | > 79 | > 79 |
| Nc1nc(N2CCN(Cc3ccc(Cl)cc3)c3ccccc3C2)c2cn[nH]c2n1 [Compound 23, 4-[1-(4-chlorobenzyl)-1,2,3,5-tetrahydro-4H-1,4-benzodiazepin-4-yl]-1H-pyrazolo[3,4-d]pyrimidin-6-amine] | < 50 | 50 to 79 | < 50 | < 50 | > 79 | > 79 |
| COc1ccc(CN2CCN(c3nc(N)nc4[nH]ncc34)Cc3ccccc32)cc1OC [Compound 28, 4-[1-(3,4-dimethoxybenzyl)-1,2,3,5-tetrahydro-4H-1,4-benzodiazepin-4-yl]-1H-pyrazolo[3,4-d]pyrimidin-6-amine] | > 79 | > 79 | > 79 | > 79 | > 79 | > 79 |
| Nc1nc(N2CCN(Cc3ccccc3Cl)c3ccccc3C2)c2cn[nH]c2n1 [Compound 14, 4-[1-(2-chlorobenzyl)-1,2,3,5-tetrahydro-4H-1,4-benzodiazepin-4-yl]-1H-pyrazolo[3,4-d]pyrimidin-6-amine] | > 79 | > 79 | < 50 | > 79 | > 79 | 50 to 79 |
| Nc1nc(N2CCN(Cc3ccc(Cl)c(Cl)c3)c3ccccc3C2)c2cn[nH]c2n1 [Compound 43, 4-[1-(3,4-dichlorobenzyl)-1,2,3,5-tetrahydro-4H-1,4-benzodiazepin-4-yl]-1H-pyrazolo[3,4-d]pyrimidin-6-amine] | < 50 | < 50 | < 50 | < 50 | > 79 | 50 to 79 |
| CC(C)(C)c1ccc(CN2CCN(c3nc(N)nc4[nH]ncc34)Cc3ccccc32)cc1 [Compound 30, 4-[1-(4-tert-butylbenzyl)-1,2,3,5-tetrahydro-4H-1,4-benzodiazepin-4-yl]-1H-pyrazolo[3,4-d]pyrimidin-6-amine] | < 50 | < 50 | < 50 | < 50 | > 79 | 50 to 79 |
| COc1ccc(OC)c(CN2CCN(c3nc(N)nc4[nH]ncc34)Cc3ccccc32)c1 [Compound 36, 4-[1-(2,5-dimethoxybenzyl)-1,2,3,5-tetrahydro-4H-1,4-benzodiazepin-4-yl]-1H-pyrazolo[3,4-d]pyrimidin-6-amine] | > 79 | > 79 | > 79 | > 79 | > 79 | > 79 |
| Nc1nc(N2CCN(Cc3cccc(C(F)(F)F)c3)c3ccccc3C2)c2cn[nH]c2n1 [Compound 21, 4-{1-[3-(trifluoromethyl)benzyl]-1,2,3,5-tetrahydro-4H-1,4-benzodiazepin-4-yl}-1H-pyrazolo[3,4-d]pyrimidin-6-amine] | > 79 | > 79 | < 50 | > 79 | > 79 | < 50 |
| CC(C)(C)c1ccc(CN2CCN(c3nc(N)nc4[nH]cnc34)Cc3ccccc32)cc1 [Compound 29, 6-[1-(4-tert-butylbenzyl)-1,2,3,5-tetrahydro-4H-1,4-benzodiazepin-4-yl]-9H-purin-2-amine] | < 50 | < 50 | < 50 | < 50 | < 50 | < 50 |
